US9180122B2, “5- or 6-substituted 3-hydroxy-2 (1 H)-pyridinones as D-amino acid oxidase (DAAO) inhibitors in therapy of diseases such as schizophrenia, cognitive disorder and pain” (Takeda Pharmaceutical Company Limited, priority 2011, dated 2015)
pIC50: −log10 of the molar value.

Target: Human DAAO enzyme (Homo sapiens (Human), UniProt P14920)
Test: In Vitro DAAO Enzyme Assay (Amplex Red detection of H2O2 from D-Serine)
Assay type: biochemical
Conditions: 10 mM D-Serine, 60 minutes at 25° C.
Protocol: The functional activity of compounds inhibiting the DAAO enzyme was determined by utilizing the co-product of the catalysis of D-Serine, H2O2 which can be quantitatively measured using the Amplex Red (Invitrogen) detection. Amplex® Red reagent is a colorless substrate that reacts with hydrogen peroxide (H2O2) with a 1:1 stoichiometry in the presence of […] to produce highly fluorescent resorufin (excitation/emission maxima=570/585 nm). The changes in fluorescence were monitored by a fluorescence plate reader, Envision (Perkin Elmer) and increases in DAAO activity were readily detected upon addition of D-Serine and suppression of this response observed with the application of test compounds.
The Km of D-Serine was measured for each enzyme batch to maintain consistency; this Km was used in subsequent assays.
On the day of the assay compounds were serially diluted in DMSO before being diluted 1:20 with assay buffer (20 mM Tris ph 7.4). A 5 μl portion of assay buffer was added to the wells of a 384 clear base black walled plate (Corning), 5 μl of diluted compound was then added via automated plate to plate transfer using the Bravo liquid handler (Agilent technologies) followed by 5 μl of human DAAO enzyme and then 5 μl D-Serine 50 mM was added to all but the negative control wells (final concentration of 10 mM). Finally 5 μl Amplex red reagent (Invitrogen) was added to all wells as per manufacturer's protocol. The plate was incubated for 60 minutes in the dark at 25° C. and the fluorescence in each well was measured in the Envision plate reader.
The IC50 values for compounds were determined from ten point half log scale dose-response studies and represent the concentration of compound required to […] 50% inhibition of DAAO activity in the presence of 10 mM D-Serine. Concentration response curves were generated using the average of duplicate wells for each data point and analyzed using nonlinear regression and four parameter curve fit.

Sequence of Human DAAO enzyme (P14920 whole entry): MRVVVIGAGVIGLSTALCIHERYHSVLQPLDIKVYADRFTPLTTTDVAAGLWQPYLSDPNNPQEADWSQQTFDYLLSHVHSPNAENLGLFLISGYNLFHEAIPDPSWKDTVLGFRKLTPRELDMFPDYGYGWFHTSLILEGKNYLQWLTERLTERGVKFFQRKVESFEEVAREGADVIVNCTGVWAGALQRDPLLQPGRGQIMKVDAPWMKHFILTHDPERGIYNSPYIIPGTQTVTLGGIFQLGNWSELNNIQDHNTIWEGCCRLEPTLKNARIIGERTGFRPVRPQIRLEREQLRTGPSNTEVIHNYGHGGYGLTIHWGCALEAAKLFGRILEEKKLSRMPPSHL

Row | Compound | pIC50
1 | O=c1[nH]cc(SCc2ccccc2)cc1O [Example 1, 5-(Benzylsulfanyl)-3-hydroxypyridin-2(1H)-one] | 6.72
2 | O=c1[nH]cc(SCc2ccc(Cl)cc2)cc1O [Example 2, 5-[(4-Chlorobenzyl)sulfanyl]-3-hydroxypyridin-2(1H)-one] | 7.46
3 | Cc1ccc(CSc2c[nH]c(=O)c(O)c2)cc1 [Example 3, 3-Hydroxy-5-[(4-methylbenzyl)sulfanyl]pyridin-2(1H)-one] | 7.54
4 | Cc1cccc(CSc2c[nH]c(=O)c(O)c2)c1 [Example 4, 3-Hydroxy-5-[(3-methylbenzyl)sulfanyl]pyridin-2(1H)-one] | 6.62
5 | O=c1[nH]cc(SCc2cccc(Cl)c2)cc1O [Example 5, 5-[(3-Chlorobenzyl)sulfanyl]-3-hydroxypyridin-2(1H)-one] | 7.26
6 | CC(Sc1c[nH]c(=O)c(O)c1)c1ccccc1 (centres unmarked) [Example 6, 3-Hydroxy-5-[(1-phenylethyl)sulfanyl]pyridin-2(1H)-one] | 5.89
7 | O=c1[nH]cc(SCc2ccccc2Cl)cc1O [Example 7, 5-[(2-Chlorobenzyl)sulfanyl]-3-hydroxypyridin-2(1H)-one] | 6.68
8 | O=c1[nH]cc(SCc2cccc(C(F)(F)F)c2)cc1O [Example 8, 3-Hydroxy-5-{[3-(trifluoromethyl)benzyl]sulfanyl}pyridin-2(1H)-one] | 6.72
9 | Cc1ccccc1CSc1c[nH]c(=O)c(O)c1 [Example 9, 3-Hydroxy-5-[(2-methylbenzyl)sulfanyl]pyridin-2(1H)-one] | 6.41
10 | O=c1[nH]cc(SCc2cc(F)cc(Cl)c2)cc1O [Example 10, 5-[(3-Chloro-5-fluorobenzyl)sulfanyl]-3-hydroxypyridin-2(1H)-one] | 6.64
11 | O=c1[nH]cc(SCc2ccc(F)cc2)cc1O [Example 11, 5-[(4-Fluorobenzyl)sulfanyl]-3-hydroxypyridin-2(1H)-one] | 7.33
12 | CCc1ccc(CSc2c[nH]c(=O)c(O)c2)cc1 [Example 12, 5-[(4-Ethylbenzyl)sulfanyl]-3-hydroxypyridin-2(1H)-one] | 7.10
13 | O=c1[nH]cc(SCc2ccc(C(F)(F)F)nc2)cc1O [Example 13, 3-Hydroxy-5-({[6-(trifluoromethyl)pyridin-3-yl]methyl}-sulfanyl)pyridin-2(1H)-one] | 6.80
14 | Cc1cccnc1CSc1c[nH]c(=O)c(O)c1 [Example 14, 3-Hydroxy-5-{[(3-methylpyridin-2-yl)methyl]sulfanyl}pyridin-2(1H)-one] | 5.72
15 | Cc1noc(C)c1CSc1c[nH]c(=O)c(O)c1 [Example 15, 5-{[(3,5-Dimethyl-1,2-oxazol-4-yl)methyl]sulfanyl}-3-hydroxypyridin-2(1H)-one] | 5.72
16 | Cc1nc(CSc2c[nH]c(=O)c(O)c2)co1 [Example 16, 3-Hydroxy-5-{[(2-methyl-1,3-oxazol-4-yl)methyl]sulfanyl}-pyridin-2(1H)-one] | 5.85
17 | O=c1[nH]cc(SCc2ccccn2)cc1O [Example 17, 3-Hydroxy-5-[(pyridin-2-ylmethyl)sulfanyl]pyridin-2(1H)-one] | 6.34
18 | O=c1[nH]cc(SCc2ccncc2)cc1O [Example 18, 3-Hydroxy-5-[(pyridin-4-ylmethyl)sulfanyl]pyridin-2(1H)-one] | 7.00
19 | O=c1[nH]cc(SCc2ccc(Cl)cn2)cc1O [Example 19, 5-{[(5-Chloropyridin-2-yl)methyl]sulfanyl}-3-hydroxypyridin-2(1H)-one] | 6.44
20 | O=c1[nH]cc(SCc2ccc(F)c(F)c2)cc1O [Example 20, 5-[(3,4-Difluorobenzyl)sulfanyl]-3-hydroxypyridin-2(1H)-one] | 7.35
21 | O=c1[nH]cc(SCc2cnccn2)cc1O [Example 24, 3-Hydroxy-5-[(pyrazin-2-ylmethyl)sulfanyl]pyridin-2(1H)-one] | 6.00
22 | O=c1[nH]cc(CCc2ccccc2)cc1O [Example 27, 3-Hydroxy-5-(2-phenylethyl)pyridin-2(1H)-one] | 6.85

Results, then the compound that gave them:

Row | pIC50 | Compound
23 | 6.89 | COc1ccc(CSc2c[nH]c(=O)c(O)c2)cc1 [Example 21, 3-Hydroxy-5-[(4-methoxybenzyl)sulfanyl]pyridin-2(1H)-one]
24 | 6.60 | O=c1[nH]cc(SCc2cccnc2)cc1O [Example 22, 3-Hydroxy-5-[(pyridin-3-ylmethyl)sulfanyl]pyridin-2(1H)-one]
25 | 6.31 | Cc1ccc(CSc2c[nH]c(=O)c(O)c2)nc1 [Example 23, 3-Hydroxy-5-{[(5-methylpyridin-2-yl)methyl]sulfanyl}pyridin-2(1H)-one]
26 | 7.08 | COc1ccc(CSc2c[nH]c(=O)c(O)c2)cn1 [Example 25, 3-Hydroxy-5-{[(6-methoxypyridin-3-yl)methyl]-sulfanyl}-pyridin-2(1H)-one]
27 | 6.46 | Cc1ccccc1CCc1c[nH]c(=O)c(O)c1 [Example 26, 3-Hydroxy-5-(2-methylphenethyl)pyridin-2(1H)-one]
28 | 6.59 | Cc1cccc(CCc2c[nH]c(=O)c(O)c2)c1 [Example 28, 3-Hydroxy-5-[2-(3-methylphenyl)ethyl]pyridin-2(1H)-one]
29 | 7.28 | Cc1ccc(CCc2c[nH]c(=O)c(O)c2)cc1 [Example 29, 3-Hydroxy-5-[2-(4-methylphenyl)ethyl]pyridin-2(1H)-one]
30 | 7.21 | O=c1[nH]cc(CCc2ccc(F)cc2)cc1O [Example 30, 5-[2-(4-Fluorophenyl)ethyl]-3-hydroxypyridin-2(1H)-one]
31 | 6.89 | O=c1[nH]cc(CCc2cccc(F)c2)cc1O [Example 31, 5-[2-(3-Fluorophenyl)ethyl]-3-hydroxypyridin-2(1H)-one]
32 | 6.77 | O=c1[nH]cc(CCc2ccccc2F)cc1O [Example 32, 5-[2-(2-Fluorophenyl)ethyl]-3-hydroxypyridin-2(1H)-one]
33 | 6.31 | O=c1[nH]cc(S(=O)(=O)Cc2ccccc2)cc1O [Example 33, 5-(Benzylsulfonyl)-3-hydroxypyridin-2(1H)-one]
34 | 6.89 | O=c1[nH]cc(SCc2cccc(F)c2)cc1O [Example 34, 5-[(3-Fluorobenzyl)sulfanyl]-3-hydroxypyridin-2(1H)-one]
35 | 5.85 | O=c1[nH]c(SCc2ccccc2)ccc1O [Example 35, 6-(benzylsulfanyl)-3-hydroxypyridin-2(1H)-one]
